Experimental data: patent publication US20170050957A1, “4-AMINO-6-(HETEROCYCLIC)PICOLINATES AND 6-AMINO-2-(HETEROCYCLIC)PYRIMIDINE-4-CARBOXYLATES AND THEIR USE AS HERBICIDES” (Dow AgroSciences LLC, priority 2013, published 2017)
Where two headings read alike, the source gives them in different places.

Experiments:
[1] = tested on: Key Grass and Sedge Weeds as well as Grass Crops; test: Post-emergent Test II herbicidal activity (Table 16); type: in vivo; conditions: post-emergence, 336 h, 140 g ai/ha, 14 days after application
Description: Post-emergent Test II: Seeds or nutlets of the desired test plant species were planted in Sun Gro Metro-Mix® 360 planting mixture, which typically has a pH of 6.0 to 6.8 and an organic matter content of about 30 percent, in plastic pots with a surface area of 64 square centimeters. When required to ensure good germination and healthy plants, a fungicide treatment and/or other chemical or physical treatment was applied. The plants were grown for 7-21 d in a greenhouse with an approximate 15 h photoperiod which was maintained at about 23-29° C. during the day and 22-28° C. during the night. Nutrients and water were added on a regular basis and supplemental lighting was provided with overhead metal halide 1000-Watt lamps as necessary. The plants were employed for testing when they reached the first or second true leaf stage.
A weighed amount, determined by the highest rate to be tested, of each test compound was placed in a 25 mL glass vial and was dissolved in 4 mL of a 97:3 v/v mixture of acetone and DMSO to obtain concentrated stock solutions. […] The concentrated stock solutions obtained were diluted with 20 mL of an aqueous mixture containing acetone, water, isopropyl alcohol, DMSO, Atplus 411F crop oil concentrate, and Triton® X-155 surfactant in a 48.5:39:10:1.5:1.0:0.02 v/v ratio to obtain spray solutions containing the highest application rates. Additional application rates were obtained by serial dilution of 12 mL of the high rate solution into a solution containing 2 mL of 97:3 v/v mixture of acetone and DMSO and 10 mL of an aqueous mixture containing acetone, water, isopropyl alcohol, DMSO, Atplus 411F crop oil concentrate, and Triton X-155 surfactant in a 48.5:39:10:1.5:1.0:0.02 v/v ratio to obtain 1/2×, 1/4×, 1/8× and 1/16× rates of the high rate. Compound requirements are based upon a 12 mL application volume at a rate of 187 liters per hectare (L/ha). Formulated compounds were applied to the plant material with an overhead Mandel track sprayer equipped with 8002E nozzles calibrated to deliver 187 L/ha over an application area of 0.503 square meters at a spray height of 18 inches (43 cm) above the average plant canopy height. Control plants were sprayed in the same manner with the solvent blank.
The treated plants and control plants were placed in a greenhouse as described above and watered by subirrigation to prevent wash-off of the test compounds. After 14 d, the condition of the test plants as compared with that of the untreated plants was determined visually and scored on a scale of 0 to 100 percent where 0 corresponds to no injury and 100 corresponds to complete kill.

[2] = tested on: Key Broadleaf Weed and Crop Species; test: Post-emergent Test II herbicidal activity (Table 15); type: in vivo; conditions: post-emergence, 336 h, 140 g ai/ha, 14 d
Method in brief: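 Plants at first-second true leaf stage, grown 7-21 d in greenhouse (~15 h photoperiod, 23-29 °C day), were track-sprayed at 187 L/ha with compound in acetone/DMSO/water/isopropanol/crop oil/Triton X-155 at a high rate plus 1/2× to 1/16× dilutions. Injury scored visually after 14 d versus untreated plants, 0 (none) to 100% (complete kill).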

[3] = Cyperus esculentus, yellow nutsedge (Cyperus esculentus), read-out: Visual Growth Reduction (%) 14 Days After Application CYPES
[4] = Echinochloa crus-galli, barnyardgrass (Echinochloa crus-galli), read-out: Visual Growth Reduction (%) 14 Days After Application ECHCG
[5] = Oryza sativa, rice (Oryza sativa), read-out: Visual Growth Reduction (%) 14 Days After Application ORYSA
[6] = Setaria faberi, giant foxtail (Setaria faberi), read-out: Visual Growth Reduction (%) 14 Days After Application SETFA
[7] = Triticum aestivum, wheat, spring (Triticum aestivum), read-out: Visual Growth Reduction (%) 14 Days After Application TRZAS
[8] = Zea mays, maize, corn (Zea mays), read-out: Visual Growth Reduction (%) 14 Days After Application ZEAMX
[9] = Abutilon theophrasti, velvetleaf (Abutilon theophrasti), read-out: Visual Growth Reduction (%) 14 Days After Application, ABUTH
[10] = Brassica napus, oilseed rape, canola (Brassica napus), read-out: Visual Growth Reduction (%) 14 Days After Application, BRSNN
[11] = Chenopodium album, lambsquarters (Chenopodium album), read-out: Visual Growth Reduction (%) 14 Days After Application, CHEAL
[12] = Euphorbia heterophylla, wild poinsettia (Euphorbia heterophylla), read-out: Visual Growth Reduction (%) 14 Days After Application, EPHHL
[13] = Helianthus annuus, sunflower (Helianthus annuus), read-out: Visual Growth Reduction (%) 14 Days After Application, HELAN

Work on `Nc1c(F)c(-c2cccc3ccsc23)nc(C(=O)O)c1Cl` [Compound 3.25] yielded a melting point of 183 to 185 °C, a pest or weed control at 140 g/ha [1, 3] of 0 to 29% and a pest or weed control at 140 g/ha [1, 4] of 0 to 29%. For the same compound, the pest or weed control at 140 g/ha [1, 5] was 0 to 29%, the pest or weed control at 140 g/ha [1, 6] was 0 to 29% and the pest or weed control at 140 g/ha [1, 7] was 0 to 29%. For the same compound, the pest or weed control at 140 g/ha [1, 8] was 0 to 29%, the pest or weed control at 140 g/ha [2, 9] was 0 to 29% and the pest or weed control at 140 g/ha ([2]; Amaranthus retroflexus, redroot pigweed (Amaranthus retroflexus), read-out: Visual Growth Reduction (%) 14 Days After Application, AMARE) was 95 to 100%. The pest or weed control at 140 g/ha [2, 10] was 75 to 84%, the pest or weed control at 140 g/ha [2, 11] was 95 to 100% and the pest or weed control at 140 g/ha [2, 12] was 0 to 29%. The pest or weed control at 140 g/ha [2, 13] was 45 to 59%.
For `COC(=O)c1nc(-c2ccc3cnn(C)c3c2)c(F)c(N)c1Cl` [Compound 4.07], the melting point was 187 to 190 °C, the pest or weed control at 140 g/ha [1, 3] was 0 to 29% and the pest or weed control at 140 g/ha [1, 4] was 0 to 29%. It also gave a pest or weed control at 140 g/ha [1, 5] of 0 to 29%, a pest or weed control at 140 g/ha [1, 6] of 0 to 29% and a pest or weed control at 140 g/ha [1, 7] of 0 to 29%. The pest or weed control at 140 g/ha [1, 8] was 0 to 29%, the pest or weed control at 140 g/ha [2, 9] was 45 to 59% and the pest or weed control at 140 g/ha [2, 10] was 45 to 59%. The pest or weed control at 140 g/ha [2, 11] was 0 to 29%, the pest or weed control at 140 g/ha [2, 12] was 60 to 74% and the pest or weed control at 140 g/ha [2, 13] was 95 to 100%.
In the case of `Cn1ncc2ccc(-c3nc(C(=O)O)c(Cl)c(N)c3F)cc21` [Compound 4.08], the melting point is reported as 182 to 184 °C, the pest or weed control at 140 g/ha [1, 3] is reported as 0 to 29% and the pest or weed control at 140 g/ha [1, 4] is reported as 0 to 29%. The pest or weed control at 140 g/ha [1, 5] was 0 to 29%, the pest or weed control at 140 g/ha [1, 6] was 0 to 29% and the pest or weed control at 140 g/ha [1, 7] was 0 to 29%. The pest or weed control at 140 g/ha [1, 8] was 0 to 29%, the pest or weed control at 140 g/ha [2, 9] was 0 to 29% and the pest or weed control at 140 g/ha [2, 10] was 60 to 74%. For the same compound, the pest or weed control at 140 g/ha [2, 11] was 95 to 100%, the pest or weed control at 140 g/ha [2, 12] was 0 to 29% and the pest or weed control at 140 g/ha [2, 13] was 85 to 94%.
